Experimental data published in ChEMBL document CHEMBL3885881, “DrugMatrix”.

Species: Rattus norvegicus
Experiment: DrugMatrix - Regimen: Daily Repeat
Format: toxicity, organism-based, Sprague-Dawley
Parameters: regimen Daily Repeat, gender Male, age 6-8 weeks
Details: in vivo, po, route oral GAVAGE, vehicle 100 % SALINE; for ABSOLUTE BASOPHIL / ABSOLUTE EOSINOPHIL / ABSOLUTE LYMPHOCYTE / ABSOLUTE MONOCYTE / ABSOLUTE SEGMENTED NEUTROPHIL / BASOPHIL / EOSINOPHIL / ERYTHROCYTE COUNT / HEMATOCRIT / HEMOGLOBIN / LEUKOCYTE COUNT / LYMPHOCYTE / MEAN CORPUSCULAR HEMOGLOBIN / MEAN CORPUSCULAR HEMOGLOBIN CONCENTRATION / MEAN CORPUSCULAR VOLUME / MONOCYTE / NEUTROPHIL / NUCLEATED RED BLOOD CELLS / PLATELET COUNT: tissue Blood; for ALANINE AMINOTRANSFERASE / ALBUMIN / ALKALINE PHOSPHATASE / ASPARTATE AMINOTRANSFERASE / BLOOD UREA NITROGEN / CARBON DIOXIDE / CHLORIDE / CHOLESTEROL / CREATINE PHOSPHOKINASE / CREATININE / GLUCOSE / LACTATE DEHYDROGENASE / LIPASE / PHOSPHORUS / POTASSIUM / SODIUM / TOTAL BILIRUBIN / TOTAL PROTEIN / URIC ACID: tissue Plasma
[1] = 0 mg/kg, 72 h, dose level Control, time 3 day
[2] = 0 mg/kg, 120 h, dose level Control, time 5 day
[3] = 17 mg/kg, 72 h, dose level Low, time 3 day
[4] = 17 mg/kg, 120 h, dose level Low, time 5 day

O=P1(NCCCl)OCCCN1CCCl (configuration not stated) [IFOSFAMIDE]
ABSOLUTE BASOPHIL [1]: 0 CELLS/uL | ABSOLUTE EOSINOPHIL [1]: 0 CELLS/uL | ABSOLUTE LYMPHOCYTE [1]: 8960.83 CELLS/uL | ABSOLUTE MONOCYTE [1]: 103.5 CELLS/uL | ABSOLUTE SEGMENTED NEUTROPHIL [1]: 635.67 CELLS/uL | BASOPHIL [1]: 0% | EOSINOPHIL [1]: 0% | ERYTHROCYTE COUNT [1]: 5.09 x10E6/uL | HEMATOCRIT [1]: 31.8% | HEMOGLOBIN [1]: 12.42 G/DL | LEUKOCYTE COUNT [1]: 9.7 x10E3/uL | LYMPHOCYTE [1]: 92.33% | MEAN CORPUSCULAR HEMOGLOBIN [1]: 24.4 pg | MEAN CORPUSCULAR HEMOGLOBIN CONCENTRATION [1]: 39.07 G/DL | MEAN CORPUSCULAR VOLUME [1]: 62.47 fL | MONOCYTE [1]: 1% | NEUTROPHIL [1]: 6.67% | NUCLEATED RED BLOOD CELLS [1]: 0 /100WBC | PLATELET COUNT [1]: 466.5 x10E3/uL | ALANINE AMINOTRANSFERASE [1]: 83.33 u/L | ALBUMIN [1]: 4.33 G/DL | ALKALINE PHOSPHATASE [1]: 340.5 u/L | ASPARTATE AMINOTRANSFERASE [1]: 189.83 u/L | BLOOD UREA NITROGEN [1]: 15.83 mg/dL | CARBON DIOXIDE [1]: 38 mmol/L | CHLORIDE [1]: 96.83 MEQ/L | CHOLESTEROL [1]: 72.5 mg/dL | CREATINE PHOSPHOKINASE [1]: 370.67 u/L | CREATININE [1]: 0.28 mg/dL | GLUCOSE [1]: 182.83 mg/dL | LACTATE DEHYDROGENASE [1]: 513.5 u/L | LIPASE [1]: 9.83 u/L | PHOSPHORUS [1]: 11.32 mg/dL | POTASSIUM [1]: 6.32 MEQ/L | SODIUM [1]: 145.12 MEQ/L | TOTAL BILIRUBIN [1]: 0.2 mg/dL | TOTAL PROTEIN [1]: 6.4 G/DL | URIC ACID [1]: 2.03 mg/dL | ABSOLUTE BASOPHIL [2]: 0 CELLS/uL | ABSOLUTE EOSINOPHIL [2]: 43.83 CELLS/uL | ABSOLUTE LYMPHOCYTE [2]: 7316.67 CELLS/uL | ABSOLUTE MONOCYTE [2]: 87.33 CELLS/uL | ABSOLUTE SEGMENTED NEUTROPHIL [2]: 418.83 CELLS/uL | BASOPHIL [2]: 0% | EOSINOPHIL [2]: 0.33% | ERYTHROCYTE COUNT [2]: 4.77 x10E6/uL | HEMATOCRIT [2]: 29.93% | HEMOGLOBIN [2]: 11.48 G/DL | LEUKOCYTE COUNT [2]: 7.87 x10E3/uL | LYMPHOCYTE [2]: 93.5% | MEAN CORPUSCULAR HEMOGLOBIN [2]: 24.17 pg | MEAN CORPUSCULAR HEMOGLOBIN CONCENTRATION [2]: 38.57 G/DL | MEAN CORPUSCULAR VOLUME [2]: 62.68 fL | MONOCYTE [2]: 1% | NEUTROPHIL [2]: 5.17% | NUCLEATED RED BLOOD CELLS [2]: 0 /100WBC | PLATELET COUNT [2]: 377.67 x10E3/uL | ALANINE AMINOTRANSFERASE [2]: 89 u/L | ALBUMIN [2]: 4.42 G/DL | ALKALINE PHOSPHATASE [2]: 275.17 u/L | ASPARTATE AMINOTRANSFERASE [2]: 204.17 u/L | BLOOD UREA NITROGEN [2]: 15.33 mg/dL | CARBON DIOXIDE [2]: 36.83 mmol/L | CHLORIDE [2]: 94.67 MEQ/L | CHOLESTEROL [2]: 92 mg/dL | CREATINE PHOSPHOKINASE [2]: 514.5 u/L | CREATININE [2]: 0.24 mg/dL | GLUCOSE [2]: 184.17 mg/dL | LACTATE DEHYDROGENASE [2]: 648.67 u/L | LIPASE [2]: 10 u/L | PHOSPHORUS [2]: 12.33 mg/dL | POTASSIUM [2]: 6.51 MEQ/L | SODIUM [2]: 144.63 MEQ/L | TOTAL BILIRUBIN [2]: 0.18 mg/dL | TOTAL PROTEIN [2]: 6.7 G/DL | URIC ACID [2]: 2.33 mg/dL | ABSOLUTE BASOPHIL [3]: 0 CELLS/uL | ABSOLUTE EOSINOPHIL [3]: 0 CELLS/uL | ABSOLUTE LYMPHOCYTE [3]: 7711.33 CELLS/uL | ABSOLUTE MONOCYTE [3]: 107 CELLS/uL | ABSOLUTE SEGMENTED NEUTROPHIL [3]: 448.33 CELLS/uL | BASOPHIL [3]: 0% | EOSINOPHIL [3]: 0% | ERYTHROCYTE COUNT [3]: 6.17 x10E6/uL | HEMATOCRIT [3]: 39.13% | HEMOGLOBIN [3]: 15.1 G/DL | LEUKOCYTE COUNT [3]: 8.27 x10E3/uL | LYMPHOCYTE [3]: 93.33% | MEAN CORPUSCULAR HEMOGLOBIN [3]: 24.47 pg | MEAN CORPUSCULAR HEMOGLOBIN CONCENTRATION [3]: 38.6 G/DL | MEAN CORPUSCULAR VOLUME [3]: 63.47 fL | MONOCYTE [3]: 1.33% | NEUTROPHIL [3]: 5.33% | NUCLEATED RED BLOOD CELLS [3]: 0 /100WBC | PLATELET COUNT [3]: 648 x10E3/uL | ALANINE AMINOTRANSFERASE [3]: 47.33 u/L | ALBUMIN [3]: 4.43 G/DL | ALKALINE PHOSPHATASE [3]: 256.67 u/L | ASPARTATE AMINOTRANSFERASE [3]: 80.33 u/L | BLOOD UREA NITROGEN [3]: 15 mg/dL | CARBON DIOXIDE [3]: 38.67 mmol/L | CHLORIDE [3]: 95.67 MEQ/L | CHOLESTEROL [3]: 85 mg/dL | CREATINE PHOSPHOKINASE [3]: 300 u/L | CREATININE [3]: 0.31 mg/dL | GLUCOSE [3]: 148.67 mg/dL | LACTATE DEHYDROGENASE [3]: 171.67 u/L | LIPASE [3]: 11.33 u/L | PHOSPHORUS [3]: 11.57 mg/dL | POTASSIUM [3]: 6.47 MEQ/L | SODIUM [3]: 144.97 MEQ/L | TOTAL BILIRUBIN [3]: 0.2 mg/dL | TOTAL PROTEIN [3]: 6.5 G/DL | URIC ACID [3]: 1.23 mg/dL | ABSOLUTE BASOPHIL [4]: 0 CELLS/uL | ABSOLUTE EOSINOPHIL [4]: 0 CELLS/uL | ABSOLUTE LYMPHOCYTE [4]: 4979.67 CELLS/uL | ABSOLUTE MONOCYTE [4]: 84.33 CELLS/uL | ABSOLUTE SEGMENTED NEUTROPHIL [4]: 269.33 CELLS/uL | BASOPHIL [4]: 0% | EOSINOPHIL [4]: 0% | ERYTHROCYTE COUNT [4]: 5.71 x10E6/uL | HEMATOCRIT [4]: 35.77% | HEMOGLOBIN [4]: 13.23 G/DL | LEUKOCYTE COUNT [4]: 5.33 x10E3/uL | LYMPHOCYTE [4]: 93% | MEAN CORPUSCULAR HEMOGLOBIN [4]: 23.13 pg | MEAN CORPUSCULAR HEMOGLOBIN CONCENTRATION [4]: 37.2 G/DL | MEAN CORPUSCULAR VOLUME [4]: 62.3 fL | MONOCYTE [4]: 1.67% | NEUTROPHIL [4]: 5.33% | NUCLEATED RED BLOOD CELLS [4]: 0 /100WBC | PLATELET COUNT [4]: 184 x10E3/uL | ALANINE AMINOTRANSFERASE [4]: 92.33 u/L | ALBUMIN [4]: 4.3 G/DL | ALKALINE PHOSPHATASE [4]: 295.33 u/L | ASPARTATE AMINOTRANSFERASE [4]: 158.33 u/L | BLOOD UREA NITROGEN [4]: 17 mg/dL | CARBON DIOXIDE [4]: 38 mmol/L | CHLORIDE [4]: 94 MEQ/L | CHOLESTEROL [4]: 79.67 mg/dL | CREATINE PHOSPHOKINASE [4]: 366 u/L | CREATININE [4]: 0.26 mg/dL | GLUCOSE [4]: 149.67 mg/dL | LACTATE DEHYDROGENASE [4]: 519 u/L | LIPASE [4]: 9.67 u/L | PHOSPHORUS [4]: 12.83 mg/dL | POTASSIUM [4]: 7.12 MEQ/L | SODIUM [4]: 144.83 MEQ/L | TOTAL BILIRUBIN [4]: 0.17 mg/dL | TOTAL PROTEIN [4]: 6.57 G/DL | URIC ACID [4]: 1.43 mg/dL
